In PMC11118832 (Biomolecules, 2024) one finds IC50 and EC50 data, which are given here for 32 compounds.

As a reminder, the EC50 is the midpoint of the concentration-response curve.

Square brackets hold non-standard residues; d marks the D form. Ends that are not written are not given here. Peptide text beside a SMILES is read from it. 1Nal = N[C@@H](Cc1cccc2ccccc12)C(=O)O; hLeu = CC(C)CC[C@H](N)C(=O)O; Nle = CCCC[C@H](N)C(=O)O; Orn = NCCC[C@H](N)C(=O)O

For the first assay, the target named is T1, PD-1/PD-L1 (Homo sapiens, UniProt Q15116).
T1 construct: this kit uses ectodomains of PD-1 and PD-L1 that are expressed with orthogonal fusion tags (Tag-1 and Tag-2); purchased CisBio (currently Perkin-Elmer, Bedford, MA)
Description: In vitro time-resolved FRET PD-1/PD-L1 binding assay (CisBio kit). To be noted: CisBio PD-1/PD-L1 binding kit, TR FRET, 96-well, 4-fold serial dilutions in triplicate, freshly dissolved peptides; read-out: IC50, inhibition of PD-1/PD-L1 binding (TR FRET assay). As for the experimental part:
Commercial PD-1/PD-L1 binding assay kit (CisBio, currently Perkin-Elmer, Bedford, MA) for time resolve fluorescent energy transfer (FRET) was used to assess peptides binding to PD-1. The assay for peptide screening was performed in a 96-well format (normal pressure), starting with 4-fold serial dilutions of each peptide in triplicate. No-peptide triplicate wells were used to assess fluorescent energy transfer in the absence of inhibition, and no-PD-1/PD-L1 triplicate wells were used to assess the background fluorescent energy transfer in the absence of PD-1/PD-L1 complexes. More detailed concentration dependences were obtained for selected peptides. Only freshly dissolved peptides were used in the assay. Various QSAR (quantitative structure activity relationship) hypotheses were tested by synthesizing batches of 10–12 peptides. In total, over one hundred candidates in ten iterations were screened for their ability to inhibit in vitro PD-1/PD-L1 binding using the commercial PD-1/PD-L1 binding assay kit (CisBio, currently Perkin-Elmer). Briefly, this kit uses ectodomains of PD-1 and PD-L1 that are expressed with orthogonal fusion tags (Tag-1 and Tag-2). It also includes two antibodies to selectively interact with these tags. The antibody against one tag is labeled with fluorescent moiety, which serves as a donor, while the other antibody is labeled with fluorescent moiety, which serves as an acceptor in fluorescent resonance energy transfer (FRET). When the complex is formed and probed with both anti-Tag-1 and anti-Tag-2 antibodies, donor and acceptor are sufficiently close, and FRET can be detected in a time-resolved (TR) manner. Inhibitors of PD-1/PD-L1 interactions prevent complex formation, leading to a decrease in TR FRET in a concentration-dependent manner, as shown in Figure 2 for four representative peptide inhibitors. Initial fourfold dilutions are exemplified by data for peptides B5.11 and B5.6 (panels A and B); examples of the more detailed follow-up concentration dependences are shown for peptides B2.4 and B2.22 (panels C and D). The potency of the inhibitors is then characterized by IC50, a concentration that inhibits TR FRET by 50%, allowing for a facile comparison of different inhibitors (Figure 2E).
In general terms: TR-FRET usually uses a lanthanide donor and a delayed reading to cut background.
Regarding `CCCC[C@H](NC(C)=O)C(=O)N[C@H](C(=O)N[C@@H](CC(C)C)C(=O)N[C@H](C(=O)N[C@H](C(=O)N[C@H](C(=O)NCC(=O)N[C@@H](C)C(=O)N[C@@H](C)C(=O)N[C@@H](Cc1c[nH]c2ccccc12)C(=O)N[C@@H](CC(=O)O)C(=O)N[C@@H](Cc1ccc(O)cc1)C(=O)N[C@@H](CCCCN)C(=O)N[C@@H](Cc1ccc(O)cc1)C(N)=O)C(C)C)[C@@H](C)CC)C(C)C)C(C)C` [B5.6] (Ac-[Nle]VLVIVGAAWDYKY-NH2), the IC50 stood at 0.2 µM.

For Ac-DVIDGAAWDYKY-NH2 [B5.11], the IC50 came to 0.05 µM.

Staying with this assay, now noted: CisBio PD-1/PD-L1 binding kit, TR FRET, 96-well, serial dilutions in triplicate; NI = no inhibition at maximum concentration tested (* 5 μM, ** 50 μM); read-out: EC50 (Supplementary Table S1; inhibition of PD-1/PD-L1 binding by in vitro TR-FRET assay).
Regarding Ac-AWDYKY-NH2 [B2.19], the concentration for a half-maximal effect (EC50) was more than 50 µM.

As for Ac-RVLVIVGAAWDYKR-NH2 [B2.7], the concentration for a half-maximal effect (EC50) stood at 55 µM.

As to `CCCC[C@H](N)C(=O)N[C@H](C(=O)N[C@H](C(=O)N[C@H](C(=O)NCC(=O)N[C@@H](C)C(=O)N[C@@H](C)C(=O)N[C@@H](Cc1c[nH]c2ccccc12)C(=O)N[C@@H](CC(=O)O)C(=O)N[C@@H](Cc1ccc(O)cc1)C(=O)N[C@@H](CCCCN)C(=O)N[C@@H](CCCNC(=N)N)C(=O)O)C(C)C)[C@@H](C)CC)C(C)C` [B4.14] (H-[Nle]VIVGAAWDYKR-OH; N-terminus and C-terminus assumed), the EC50 is more than 5 µM.

For `CCCC[C@H](N)C(=O)N[C@H](C(=O)N[C@@H](Cc1c[nH]c2ccccc12)C(=O)N[C@H](C(=O)NCC(=O)N[C@@H](C)C(=O)N[C@@H](C)C(=O)N[C@@H](Cc1c[nH]c2ccccc12)C(=O)N[C@@H](CC(=O)O)C(=O)N[C@@H](CCCNC(=N)N)C(=O)N[C@@H](CCCCN)C(=O)N[C@@H](Cc1ccc(O)cc1)C(=O)O)C(C)C)C(C)C` [B4.13] (H-[Nle]VWVGAAWDRKY-OH; N-terminus and C-terminus assumed), the EC50 was more than 5 µM.

On to Ac-EVIDGAAWDYKY-NH2 [B8.17], for which the EC50 is more than 5 µM.

Ac-DVINGAAWDYKY-NH2 [B8.4]: the EC50 was more than 5 µM.

For the compound `CCCC[C@H](NC(=O)[C@@H](NC(=O)[C@H](CCCNC(=N)N)NC(C)=O)C(C)C)C(=O)N[C@H](C(=O)N[C@H](C(=O)N[C@H](C(=O)NCC(=O)N[C@@H](C)C(=O)N[C@@H](CCCN)C(=O)N[C@@H](Cc1c[nH]c2ccccc12)C(=O)N[C@@H](CC(=O)O)C(=O)N[C@@H](Cc1ccc(O)cc1)C(=O)N[C@@H](CCCCN)C(=O)N[C@@H](Cc1ccc(O)cc1)C(N)=O)C(C)C)[C@@H](C)CC)C(C)C` [B4.9] (Ac-RV[Nle]VIVGA[Orn]WDYKY-NH2), the EC50 came out at 5 µM.

For `CC[C@H](C)[C@H](NC(=O)[C@@H](NC(=O)[C@H](CC(=O)O)NC(C)=O)C(C)C)C(=O)N[C@H](C(=O)NCC(=O)N[C@@H](C)C(=O)N[C@@H](C)C(=O)N[C@@H](Cc1cccc2ccccc12)C(=O)N[C@@H](CC(=O)O)C(=O)N[C@@H](Cc1ccc(O)cc1)C(=O)N[C@@H](CCCCN)C(=O)N[C@@H](Cc1ccc(O)cc1)C(N)=O)C(C)C` [B6.1] (Ac-DVIVGAA[1Nal]DYKY-NH2), the EC50 is more than 5 µM.

Turning to KRVLVIVGAAWDYKYE [B2.35], the concentration giving a half-maximal response (EC50) came to 10 µM.

Take Ac-DVIDGAAWDYK-NH2 [B8.24]: the concentration for a half-maximal effect (EC50) was more than 5 µM.

Take `CCCC[C@H](NC(C)=O)C(=O)N[C@H](C(=O)N[C@@H](CC(C)C)C(=O)N[C@H](C(=O)N[C@H](C(=O)N[C@H](C(=O)NCC(=O)N[C@@H](C)C(=O)N[C@@H](C)C(=O)N[C@@H](Cc1c[nH]c2ccccc12)C(=O)N[C@@H](CC(=O)O)C(=O)N[C@@H](Cc1ccc(O)cc1)C(=O)N[C@@H](CCCCN)C(=O)N[C@@H](Cc1ccc(O)cc1)C(N)=O)C(C)C)[C@@H](C)CC)C(C)C)C(C)C` [B5.6] (Ac-[Nle]VLVIVGAAWDYKY-NH2): the 50% effective concentration (EC50) came out at 0.2 µM.

As to Ac-DVIDGAAWDYKR-NH2 [B8.23], the EC50 was more than 5 µM.

In the case of Ac-DWIVGAAWDYKY-NH2 [B5.13], the EC50 is more than 5 µM.

Ac-DAAWDYKY-NH2 [B9.1]: the concentration for a half-maximal effect (EC50) is more than 5 µM.

As to Ac-DIIDGAAWDYKY-NH2 [B8.16], the EC50 is more than 5 µM.

In the case of Ac-NVIVGAAWDYKY-NH2 [B7.7], the EC50 was more than 5 µM.

For Ac-LVIVGAAWDYKR-NH2 [B3.4], the EC50 is 21 µM.

Turning to `CC[C@H](C)[C@H](NC(=O)[C@@H](NC(=O)[C@H](CC(C)C)NC(C)=O)C(C)C)C(=O)N[C@H](C(=O)NCC(=O)N[C@@H](C)C(=O)N[C@@H](CCCN)C(=O)N[C@@H](Cc1c[nH]c2ccccc12)C(=O)N[C@@H](CC(=O)O)C(=O)N[C@@H](Cc1ccc(O)cc1)C(=O)N[C@@H](CCCCN)C(=O)N[C@@H](Cc1ccc(O)cc1)C(N)=O)C(C)C` [B3.22] (Ac-LVIVGA[Orn]WDYKY-NH2), the EC50 was more than 5 µM.

Regarding `CC(=O)N[C@@H](CCC(C)C)C(=O)N[C@H](C(=O)N[C@@H](CCC(C)C)C(=O)N[C@H](C(=O)NCC(=O)N[C@@H](C)C(=O)N[C@@H](C)C(=O)N[C@@H](Cc1c[nH]c2ccccc12)C(=O)N[C@@H](CC(=O)O)C(=O)N[C@@H](CCCNC(=N)N)C(=O)N[C@@H](CCCCN)C(=O)N[C@@H](Cc1ccc(O)cc1)C(N)=O)C(C)C)C(C)C` [B3.20] (Ac-[hLeu]V[hLeu]VGAAWDRKY-NH2), the EC50 is more than 5 µM.

In the case of `CCCC[C@H](NC(C)=O)C(=O)N[C@H](C(=O)N[C@@H](CC(=O)O)C(=O)N[C@H](C(=O)N[C@H](C(=O)N[C@H](C(=O)NCC(=O)N[C@@H](C)C(=O)N[C@@H](C)C(=O)N[C@@H](Cc1c[nH]c2ccccc12)C(=O)N[C@@H](CC(=O)O)C(=O)N[C@@H](Cc1ccc(O)cc1)C(=O)N[C@@H](CCCCN)C(=O)N[C@@H](Cc1ccc(O)cc1)C(N)=O)C(C)C)[C@@H](C)CC)C(C)C)C(C)C` [B5.5] (Ac-[Nle]VDVIVGAAWDYKY-NH2), the EC50 is more than 5 µM.

Take `CCCC[C@H](NC(C)=O)C(=O)N[C@H](C(=O)N[C@@H](Cc1c[nH]c2ccccc12)C(=O)N[C@H](C(=O)NCC(=O)N[C@@H](C)C(=O)N[C@@H](C)C(=O)N[C@@H](Cc1c[nH]c2ccccc12)C(=O)N[C@@H](CC(=O)O)C(=O)N[C@@H](Cc1ccc(O)cc1)C(=O)N[C@@H](CCCCN)C(=O)N[C@@H](Cc1ccc(O)cc1)C(N)=O)C(C)C)C(C)C` [B4.11] (Ac-[Nle]VWVGAAWDYKY-NH2): the EC50 was more than 5 µM.

On to Ac-EAWDYKY-NH2 [B9.4], for which the concentration giving a half-maximal response (EC50) was more than 5 µM.

Take Ac-DVIVGAAWDYKYLT-NH2 [B7.1]: the EC50 is more than 5 µM.

In the case of `CCCC[C@H](NC(C)=O)C(=O)N[C@H](C(=O)N[C@@H](CC(C)C)C(=O)N[C@H](C(=O)N[C@H](C(=O)N[C@H](C(=O)NCC(=O)N[C@@H](C)C(=O)N[C@@H](C)C(=O)N[C@@H](Cc1c[nH]c2ccccc12)C(=O)N[C@@H](CC(=O)O)C(=O)N[C@@H](Cc1ccc(O)cc1)C(=O)N[C@@H](CCCCN)C(=O)N[C@@H](CCCNC(=N)N)C(N)=O)C(C)C)[C@@H](C)CC)C(C)C)C(C)C` [B2.5] (Ac-[Nle]VLVIVGAAWDYKR-NH2), the EC50 came out at 11 µM.

Take `CC[C@H](C)[C@H](NC(=O)[C@H](CCC(C)C)NC(=O)[C@H](CC(=O)O)NC(C)=O)C(=O)N[C@H](C(=O)NCC(=O)N[C@@H](C)C(=O)N[C@@H](C)C(=O)N[C@@H](Cc1c[nH]c2ccccc12)C(=O)N[C@@H](CC(=O)O)C(=O)N[C@@H](Cc1ccc(O)cc1)C(=O)N[C@@H](CCCCN)C(=O)N[C@@H](Cc1ccc(O)cc1)C(N)=O)C(C)C` [B5.3] (Ac-D[hLeu]IVGAAWDYKY-NH2): the EC50 was more than 5 µM.

Consider Ac-DVIDGAAWDYKY-NH2 [B5.11], for which the EC50 is 0.05 µM.

For Ac-DIIVGAAWDYKY-NH2 [B5.10], the EC50 is more than 5 µM.

Consider Ac-EGAAWDYKY-NH2 [B9.6], for which the EC50 was more than 50 µM.

Turning to `CCCC[C@H](NC(=O)[C@@H](NC(=O)[C@@H](N)CCCNC(=N)N)C(C)C)C(=O)N[C@H](C(=O)N[C@H](C(=O)N[C@H](C(=O)NCC(=O)N[C@@H](C)C(=O)N[C@@H](C)C(=O)N[C@@H](Cc1c[nH]c2ccccc12)C(=O)N[C@@H](CC(=O)O)C(=O)N[C@@H](Cc1ccc(O)cc1)C(=O)N[C@@H](CCCCN)C(=O)O)C(C)C)[C@@H](C)CC)C(C)C` [B4.5] (H-RV[Nle]VIVGAAWDYK-OH; N-terminus and C-terminus assumed), the EC50 was more than 5 µM.

With Ac-RVFVFVGAAWDYKY-NH2 [B2.21], the 50% effective concentration (EC50) was 12.7 µM.

Consider Ac-DAIDGAAWDYKY-NH2 [B8.2], for which the EC50 was more than 5 µM.

For `CCCC[C@H](NC(=O)[C@@H](NC(=O)[C@H](CCCNC(=N)N)NC(C)=O)C(C)C)C(=O)N[C@@H](CCCNC(=N)N)C(=O)N[C@H](C(=O)N[C@@H](CCC(=O)O)C(=O)NCC(=O)N[C@@H](C)C(=O)N[C@@H](C)C(=O)N[C@@H](Cc1c[nH]c2ccccc12)C(=O)N[C@@H](CC(=O)O)C(=O)N[C@@H](Cc1ccc(O)cc1)C(=O)N[C@@H](CCCCN)C(=O)N[C@@H](Cc1ccc(O)cc1)C(N)=O)[C@@H](C)CC` [B4.6] (Ac-RV[Nle]RIEGAAWDYKY-NH2), the EC50 is more than 5 µM.
